According to the supplement of paper PMC4862054:

Columns and labels:
Conditions in all cases: incubation time: 72 h
DU-4475 [1] = experiment: drug sensitivity score (DSS), CellTiter-Blue viability (DSS (AUC-based score)); higher = stronger viability inhibition; extreme values may be limits of the assay
How it was run: (§1)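 Breast cancer cell lines (20 µl suspension) were seeded into 384-well plates holding compound in a 5- or 9-concentration series, then incubated 72 h. Viability was read with CellTiter-Blue: 2.5 µl reagent was added per well for 2 h at 37 °C, and fluorescence was read at 560/590 nm. Each plate was normalised to 0.1 % DMSO and a positive kill control. The drug sensitivity score was calculated from the area under the fitted dose-response curve.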

BT-549 [2] = experiment: as above
How it was run: as §1

BT-474 [3] = experiment: as above
How it was run: as §1

MDA-MB-231 [4] = experiment: as above
How it was run: as §1

CAL-148 [5] = experiment: as above
How it was run: as §1

SK-BR-3 [6] = experiment: as above
How it was run: as §1

HDQ-P1 [7] = experiment: as above
How it was run: as §1

HCC1599 = experiment: as above
How it was run: as §1

DU-4475 [8] = experiment: drug sensitivity score (DSS), CellTiter-Glo (DSS (AUC-based score)); higher = stronger drug effect (viability inhibition or cytotoxicity); extreme values may be limits of the assay
How it was run: (§2)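 In 384-well plates, compound was laid out at 5 concentrations in 10-fold steps over a 10,000-fold range specific to each compound, and breast cancer cell lines were seeded on top in 20 µl suspension for a 72 h incubation. CellTox Green fluorescence and then CellTiter-Glo luminescence were read, and each plate was normalised to 0.1 % DMSO and a positive kill control. The drug sensitivity score was calculated from the area under the fitted dose-response curve.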

HCC1143 = experiment: as above
How it was run: as §2

BT-549 [9] = experiment: as above
How it was run: as §2

BT-474 [10] = experiment: as above
How it was run: as §2

CAL-51 = experiment: as above
How it was run: as §2

MDA-MB-453 = experiment: as above
How it was run: as §2

MDA-MB-436 = experiment: as above
How it was run: as §2

Hs578T = experiment: as above
How it was run: as §2

MFM-223 = experiment: as above
How it was run: as §2

HCC1937 = experiment: as above
How it was run: as §2

MDA-MB-231 [11] = experiment: as above
How it was run: as §2

MDA-MB-468 = experiment: as above
How it was run: as §2

MCF-10A = experiment: as above
How it was run: as §2

CAL-148 [12] = experiment: as above
How it was run: as §2

SK-BR-3 [13] = experiment: as above
How it was run: as §2

HDQ-P1 [14] = experiment: as above
How it was run: as §2

CAL-120 = experiment: as above
How it was run: as §2

Row | SMILES | drug sensitivity score (DU-4475 [1]) | drug sensitivity score (BT-549 [2]) | drug sensitivity score (BT-474 [3]) | drug sensitivity score (MDA-MB-231 [4]) | drug sensitivity score (CAL-148 [5]) | drug sensitivity score (SK-BR-3 [6]) | drug sensitivity score (HDQ-P1 [7]) | drug sensitivity score (HCC1599) | drug sensitivity score (DU-4475 [8]) | drug sensitivity score (HCC1143) | drug sensitivity score (BT-549 [9]) | drug sensitivity score (BT-474 [10]) | drug sensitivity score (CAL-51) | drug sensitivity score (MDA-MB-453) | drug sensitivity score (MDA-MB-436) | drug sensitivity score (Hs578T) | drug sensitivity score (MFM-223) | drug sensitivity score (HCC1937) | drug sensitivity score (MDA-MB-231 [11]) | drug sensitivity score (MDA-MB-468) | drug sensitivity score (MCF-10A) | drug sensitivity score (CAL-148 [12]) | drug sensitivity score (SK-BR-3 [13]) | drug sensitivity score (HDQ-P1 [14]) | drug sensitivity score (CAL-120)
1 | CS(=O)(=O)OCCCCOS(C)(=O)=O [Busulfan] | 0 | 0 | 0 | 0 | 0 | 0 | 0 | 0 | 0 | 0 | 0 | 0.000307 | 0 | 0 | 0 | 0 | 0 | 0 | 0 | 0 | 0 | 0 | 0 | 0 | 0
2 | COC1=C2C[C@@H](C)C[C@H](OC)[C@H](O)[C@@H](C)/C=C(\C)[C@H](OC(N)=O)[C@@H](OC)/C=C\C=C(/C)C(=O)NC(=CC1=O)C2=O [Geldanamycin] | 22.5 | 23.4 | 22.7 | 24.2 | 18.2 | 25.2 | 20.1 | 14.7 | 6.88 | 2.36 | 5.68 | 4.34 | 5.12 | 3.9 | 8.77 | 3.07 | 11.3 | 5.93 | 5.32 | 4.27 | 3.98 | 1.87 | 5.98 | 4 | 2.21
3 | O=C(c1ccc(OCCN2CCCCC2)cc1)c1c(-c2ccc(O)cc2)sc2cc(O)ccc12 [Raloxifene] | 0 | 0 | 0 | 0 | 0 | 0 | 0 | 0 | 0 | 0 | 0 | 0.666 | 0 | 0 | 0 | 0 | 1.56 | 0 | 0 | 2.72 | 0 | 0 | 0 | 0 | 0
4 | CCS(=O)(=O)c1cccc(-c2cc(C(=O)NC3CCN(C)CC3)c(C)c3[nH]c4ncc(C)cc4c23)c1 [TAK-901] | 3.52 | 8.46 | 0 | 9 | 0 | 0 | 5.84 | 4.14 | 0 | 4.84 | 6.76 | 6.57 | 0 | 0 | 2.45 | 1.14 | 5.76 | 0 | 7.63 | 12.3 | 7.18 | 0 | 0 | 3.52 | 4.67
5 | C#Cc1cccc(Nc2ncnc3cc(OC)c(OCCCCCCC(=O)NO)cc23)c1 [CUDC-101] | 10.6 | 8.79 | 14.8 | 12 | 12.2 | 18.6 | 14.7 | 15.3 | 9.19 | 11.1 | 9 | 7.85 | 12.7 | 21.1 | 6.33 | 8.01 | 15 | 8.33 | 13.1 | 18.1 | 17.5 | 10.1 | 14.6 | 7.15 | 5.5
6 | CN1CCN(c2ccc3nc(-c4c(N)c5c(F)cccc5[nH]c4=O)[nH]c3c2)CC1 [Dovitinib] | 0 | 0 | 0 | 0 | 0 | 0 | 0 | 0 | 0 | 0 | 0 | 0 | 0 | 0 | 0 | 0 | 0 | 0 | 0 | 0 | 0 | 0 | 0 | 0 | 0.000114
7 | COc1cccc2c1C(=O)c1c(O)c3c(c(O)c1C2=O)C[C@@](O)(C(C)=O)C[C@@H]3O[C@H]1C[C@H](N)[C@H](O)[C@H](C)O1 [Daunorubicin] | 14 | 9.47 | 7.7 | 13.5 | 13 | 13.1 | 5.31 | 1.88 | 7.7 | 3.23 | 9.34 | 7.33 | 12 | 3.7 | 6.85 | 4.81 | 1.59 | 2.19 | 6.97 | 10.7 | 2.11 | 10 | 6.15 | 3.57 | 4.35
8 | CC(C)C[C@H](NC(=O)[C@H](Cc1ccccc1)NC(=O)c1cnccn1)B(O)O [Bortezomib] | 20.9 | 24.3 | 18.8 | 28.8 | 17.9 | 25.5 | 27.7 | 7.18 | 17.5 | 19.3 | 28.8 | 24.4 | 18.3 | 16.8 | 26 | 22.8 | 27.1 | 12.9 | 22.4 | 30.9 | 9.83 | 14.4 | 26.4 | 22.6 | 19.9
9 | O=c1[nH]c(=O)n([C@H]2C[C@H](O)[C@@H](CO)O2)cc1F [Floxuridine] | 0 | 6.97 | 0 | 8.09 | 18.3 | 17.9 | 0 | 0.768 | 1.58 | 0 | 1.93 | 5.99 | 17.3 | 0 | 9.72 | 24.7 | 0 | 10.3 | 4.12 | 6.72 | 0 | 0 | 12 | 2.32 | 11.1
10 | COc1ncc(-c2ccc3nccc(-c4ccnnc4)c3c2)cc1NS(=O)(=O)c1ccc(F)cc1F | 10.8 | 13.6 | 19.9 | 13.3 | 17.3 | 25 | 21.1 | 17 | 7.12 | 13.3 | 16.8 | 11.2 | 15.8 | 19.4 | 11.6 | 14 | 14.3 | 10.6 | 10.3 | 13.9 | 17.5 | 12.2 | 20.6 | 19.4 | 13
11 | COC1=CC(c2cc3ccccc3[nH]2)=N/C1=C\c1[nH]c(C)cc1C [Obatoclax] | 2.24 | 16.4 | 15.2 | 21 | 4.47 | 20.1 | 15.4 | 7.48 | 0.576 | 0 | 5.4 | 7.09 | 4.52 | 2.69 | 1.64 | 0 | 0 | 7.4 | 7.72 | 3.12 | 0 | 0 | 1.08 | 0 | 0
12 | O=c1[nH]cc(F)c(=O)[nH]1 [Fluorouracil] | 1.34 | 2.25 | 0 | 1.96 | 4.79 | 8.26 | 0 | 1.41 | 0 | 0 | 0 | 0 | 0 | 0 | 3.61 | 0 | 0 | 0 | 0 | 0 | 0 | 0 | 1.79 | 0 | 0
13 | C[C@@]1(C(=O)Nc2ccc(F)nc2)CCCN1c1nc(Nc2cc(C3CC3)n[nH]2)c2cccn2n1 | 9.27 | 6.82 | 0 | 11 | 6.09 | 5.88 | 16 | 11.5 | 5.67 | 6.03 | 9.6 | 9.15 | 9.26 | 0 | 7.17 | 3.38 | 10.2 | 0 | 9.67 | 16.4 | 25 | 0 | 6.12 | 15.8 | 10.3
14 | CCCC(CCC)C(=O)O [Valproic acid] | 0 | 0 | 0 | 0 | 0 | 0 | 0 | 0 | 0 | 0 | 0 | 0 | 1.6 | 1.51 | 0 | 0 | 0 | 0 | 0 | 0 | 0 | 0 | 0 | 0 | 0
